Experimental data from patent publication US4697036A, “Process for the preparation of optically active alpha-arylalkanoic acids and novel intermediates thereof” (Zambon S.p.A., priority 1984, dated 1987).

What was measured:
Format in all cases: in vivo
[1] = Anti-inflammatory activity by oral administration; conditions: for ED50: oral, dose column in μM/kg/os, after 3 h, read-out: ED50 (L.C. 95%)
Excerpt: A further unexpected property of the compounds of formula (C) is that they are in themselves pharmacologically active compounds. […] The following tables give the data relative to the anti-inflammatory and antipyretic activity of the compounds (D) in which: |Anti-inflammatory activity of the derivatives (a) and |(b) with respect to Naproxen and 5-bromo-Naproxen (c) |by oral administration

[2] = Antipyretic activity by oral administration in rats (change in body temperature)
Excerpt: Antipyretic activity of compound (a) and (b) with respect to
Naproxen and 5-bromo-Naproxen (c)
by oral administration in rats

[3] = Antipyretic activity by peritoneal administration in rats (change in body temperature); conditions: peritoneal administration (title)

SMILES | Inhibition (after 3 h) ([1]; 10 μM/kg/os) | Inhibition (after 3 h) ([1]; 30 μM/kg/os) | Inhibition (after 3 h) ([1]; 100 μM/kg/os) | ED50 [1] | Change in body temperature after 1 hour ([2]; 30 μM/kg/oral) | Change in body temperature after 2 hours ([2]; 30 μM/kg/oral) | Change in body temperature after 1 hour ([2]; 100 μM/kg/oral) | Change in body temperature after 2 hours ([2]; 100 μM/kg/oral) | Change in body temperature after 1 hour ([2]; 300 μM/kg/oral) | Change in body temperature after 2 hours ([2]; 300 μM/kg/oral) | Change in body temperature after 30 min ([3]; 30 μM/kg) | Change in body temperature after 1 hour ([3]; 30 μM/kg) | Change in body temperature after 4 hours ([3]; 30 μM/kg) | Change in body temperature after 1 hour ([2]; 10 μM/kg/oral) | Change in body temperature after 2 hours ([2]; 10 μM/kg/oral) | Change in body temperature after 30 min ([3]; 10 μM/kg) | Change in body temperature after 1 hour ([3]; 10 μM/kg) | Change in body temperature after 4 hours ([3]; 10 μM/kg) | other results
COc1ccc2cc([C@H](C)C(=O)O)ccc2c1Br [(c), S(+)-2-(5-bromo-6-methoxy-2-naphthyl)-propionic acid, reference compound] | 6% | 34% | 34% | 196 µmol/kg | -0.17 °C | -0.66 °C | -1.33 °C | -1.67 °C | -1.42 °C | -1.84 °C | -0.55 °C | -1.01 °C | +0.06 °C |  |  |  |  |  | Inhibition (after 3 h) ([1]; 300 μM/kg/os): 56%; Change in body temperature after 30 min ([3]; 100 μM/kg): -0.78 °C; Change in body temperature after 1 hour ([3]; 100 μM/kg): -1.45 °C; Change in body temperature after 4 hours ([3]; 100 μM/kg): -0.99 °C
COC(=O)C(O)C(OC(=O)C(C)c1ccc2cc(OC)ccc2c1)C(=O)OC (stereo not shown) [(a)] | 0% | 0% | 16% | 175 µmol/kg | +0.07 °C | -0.61 °C | +0.01 °C | -0.76 °C | +0.03 °C | -0.81 °C | -0.61 °C | -1.02 °C | -0.56 °C | -0.02 °C | +0.02 °C | -0.26 °C | -0.52 °C | -0.19 °C | 
COC(=O)C(O)C(OC(=O)C(C)c1ccc2c(Br)c(OC)ccc2c1)C(=O)OC (stereo not shown) [(b)] | 3% | 14% | 20% | 160 µmol/kg | -0.49 °C | -0.68 °C | -0.46 °C | -0.68 °C |  |  | -0.77 °C | -0.87 °C | -0.44 °C | -0.17 °C | -0.19 °C | -0.24 °C | -0.52 °C | -0.26 °C | 
COc1ccc2cc([C@H](C)C(=O)O)ccc2c1 [Naproxen, S(+)2-(6-methoxy-2-naphtyl)-propionic acid, reference compound] | 38% | 45% | 66% | 31 µmol/kg | -1.86 °C | -1.89 °C |  |  |  |  |  |  |  | -1.22 °C | -1.48 °C | -1.00 °C | -1.10 °C | -0.86 °C | Change in body temperature after 1 hour ([2]; 3 μM/kg/oral): -0.38 °C; Change in body temperature after 2 hours ([2]; 3 μM/kg/oral): -0.52 °C
